Measurements published in US20240246942A1, “KINASE INHIBITORS FOR THE TREATMENT OF NEURODEGENERATIVE DISEASES” (priority 2020, published 2024).
Where two headings read alike, the source gives them in different places.

What was measured:
Assay in all cases: biochemical
[1] = biological target: T1, panel of 374 wild-type kinases (Homo sapiens, UniProt O95382); details: read-out: % Enzyme Activity (relative to DMSO controls), MEKK6
T1 construct: purchased Reaction Biology Corporation
T1 sequence (O95382 1-1288): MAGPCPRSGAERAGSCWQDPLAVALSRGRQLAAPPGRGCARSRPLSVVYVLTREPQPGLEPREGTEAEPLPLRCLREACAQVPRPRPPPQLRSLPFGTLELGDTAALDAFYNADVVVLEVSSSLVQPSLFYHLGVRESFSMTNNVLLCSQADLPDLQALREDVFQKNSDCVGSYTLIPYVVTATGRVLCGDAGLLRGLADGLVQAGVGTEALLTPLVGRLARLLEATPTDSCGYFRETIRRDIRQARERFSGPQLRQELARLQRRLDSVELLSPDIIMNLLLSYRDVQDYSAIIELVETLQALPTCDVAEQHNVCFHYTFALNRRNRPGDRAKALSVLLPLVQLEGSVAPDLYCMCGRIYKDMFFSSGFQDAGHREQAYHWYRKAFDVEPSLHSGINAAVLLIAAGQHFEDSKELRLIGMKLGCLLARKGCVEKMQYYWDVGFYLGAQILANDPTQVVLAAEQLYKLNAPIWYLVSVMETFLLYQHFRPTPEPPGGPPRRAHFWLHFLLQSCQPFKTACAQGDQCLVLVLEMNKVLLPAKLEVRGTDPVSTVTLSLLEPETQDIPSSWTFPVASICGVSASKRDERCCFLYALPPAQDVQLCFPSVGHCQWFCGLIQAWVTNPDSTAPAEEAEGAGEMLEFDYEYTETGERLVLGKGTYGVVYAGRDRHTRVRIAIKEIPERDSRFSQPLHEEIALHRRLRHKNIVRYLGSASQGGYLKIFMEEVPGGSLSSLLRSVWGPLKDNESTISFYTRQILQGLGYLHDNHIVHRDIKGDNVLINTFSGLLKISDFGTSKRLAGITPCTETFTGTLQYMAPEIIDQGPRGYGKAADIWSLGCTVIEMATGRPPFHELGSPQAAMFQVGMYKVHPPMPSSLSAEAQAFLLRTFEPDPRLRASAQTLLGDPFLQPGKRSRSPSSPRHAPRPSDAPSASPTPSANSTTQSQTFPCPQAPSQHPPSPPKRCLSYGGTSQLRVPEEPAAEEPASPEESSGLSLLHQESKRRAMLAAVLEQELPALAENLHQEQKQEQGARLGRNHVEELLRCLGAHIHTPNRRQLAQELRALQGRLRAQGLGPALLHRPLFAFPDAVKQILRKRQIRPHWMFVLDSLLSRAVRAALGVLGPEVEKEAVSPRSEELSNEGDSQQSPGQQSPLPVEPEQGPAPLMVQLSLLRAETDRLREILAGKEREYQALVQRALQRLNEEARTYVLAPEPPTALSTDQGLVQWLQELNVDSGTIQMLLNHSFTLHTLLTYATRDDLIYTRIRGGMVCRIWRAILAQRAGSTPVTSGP

[2] = biological target: T2, panel of 374 wild-type kinases (Homo sapiens, UniProt P09769); details: read-out: % Enzyme Activity (relative to DMSO controls), FGR
T2 construct: purchased Reaction Biology Corporation

[3] = biological target: T3, panel of 374 wild-type kinases (Homo sapiens, UniProt P24723); details: read-out: % Enzyme Activity (relative to DMSO controls), kinase PKCeta
T3 construct: purchased Reaction Biology Corporation

[4] = biological target: T4, panel of 374 wild-type kinases (Homo sapiens, UniProt P30530); details: read-out: % Enzyme Activity (relative to DMSO controls), AXL
T4 construct: purchased Reaction Biology Corporation
T4 sequence (P30530 26-894): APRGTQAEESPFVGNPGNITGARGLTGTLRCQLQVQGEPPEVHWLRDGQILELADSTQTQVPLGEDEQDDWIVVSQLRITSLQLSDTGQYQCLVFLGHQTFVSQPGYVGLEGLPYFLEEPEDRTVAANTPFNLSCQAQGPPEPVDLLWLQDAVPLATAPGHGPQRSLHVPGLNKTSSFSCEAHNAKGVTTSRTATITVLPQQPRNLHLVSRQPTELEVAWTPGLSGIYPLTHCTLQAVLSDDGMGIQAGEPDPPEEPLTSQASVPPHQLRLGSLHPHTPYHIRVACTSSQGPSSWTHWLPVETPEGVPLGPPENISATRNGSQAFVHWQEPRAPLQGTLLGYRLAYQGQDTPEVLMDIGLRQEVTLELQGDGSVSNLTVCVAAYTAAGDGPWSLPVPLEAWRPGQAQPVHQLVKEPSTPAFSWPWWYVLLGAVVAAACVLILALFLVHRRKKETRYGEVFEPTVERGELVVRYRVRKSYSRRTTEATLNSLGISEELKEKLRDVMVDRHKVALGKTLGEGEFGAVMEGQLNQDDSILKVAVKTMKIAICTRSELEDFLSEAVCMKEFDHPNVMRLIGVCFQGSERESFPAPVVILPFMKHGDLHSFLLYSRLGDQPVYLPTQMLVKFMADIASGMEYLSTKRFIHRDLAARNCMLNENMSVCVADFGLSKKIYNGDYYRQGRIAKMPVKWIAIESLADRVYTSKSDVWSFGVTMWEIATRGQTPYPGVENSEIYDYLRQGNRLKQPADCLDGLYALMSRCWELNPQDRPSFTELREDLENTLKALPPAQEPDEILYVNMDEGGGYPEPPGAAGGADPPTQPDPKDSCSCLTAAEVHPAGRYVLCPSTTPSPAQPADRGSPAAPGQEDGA

[5] = biological target: T5, panel of 374 wild-type kinases (Homo sapiens, UniProt P43250); details: read-out: % Enzyme Activity (relative to DMSO controls), GRK6
T5 construct: purchased Reaction Biology Corporation

[6] = biological target: T6, panel of 374 wild-type kinases (Homo sapiens, UniProt P49840); details: read-out: % Enzyme Activity (relative to DMSO controls), GSK3a
T6 construct: purchased Reaction Biology Corporation

[7] = biological target: T7, panel of 374 wild-type kinases (Homo sapiens, UniProt Q00535)
T7 construct: purchased Reaction Biology Corporation

[8] = biological target: T8, panel of 374 wild-type kinases (Homo sapiens, UniProt Q16620); details: read-out: % Enzyme Activity (relative to DMSO controls), kinase TRKB
T8 construct: purchased Reaction Biology Corporation

[9] = biological target: T9, panel of 374 wild-type kinases (Homo sapiens, UniProt Q9UKE5); details: read-out: % Enzyme Activity (relative to DMSO controls), kinase TNIK
T9 construct: purchased Reaction Biology Corporation

[10] = read-out: % Enzyme Activity (relative to DMSO controls), CDK5/P25
[11] = read-out: % Enzyme Activity (relative to DMSO controls), CDK5/p35

T2 sequence (P09769 whole entry): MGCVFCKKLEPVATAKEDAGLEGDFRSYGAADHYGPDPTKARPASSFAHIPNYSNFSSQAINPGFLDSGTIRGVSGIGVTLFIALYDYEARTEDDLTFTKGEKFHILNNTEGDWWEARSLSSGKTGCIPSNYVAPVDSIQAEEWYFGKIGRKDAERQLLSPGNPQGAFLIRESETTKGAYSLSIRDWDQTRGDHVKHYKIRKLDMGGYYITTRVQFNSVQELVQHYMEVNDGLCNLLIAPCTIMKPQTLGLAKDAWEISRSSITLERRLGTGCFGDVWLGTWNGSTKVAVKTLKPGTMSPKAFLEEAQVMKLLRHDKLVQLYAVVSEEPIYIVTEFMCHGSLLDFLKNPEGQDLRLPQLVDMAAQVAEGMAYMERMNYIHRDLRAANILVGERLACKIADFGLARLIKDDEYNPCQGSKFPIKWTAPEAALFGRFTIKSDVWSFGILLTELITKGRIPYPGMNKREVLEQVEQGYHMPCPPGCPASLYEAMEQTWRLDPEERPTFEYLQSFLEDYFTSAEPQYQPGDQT
T5 sequence (P43250 whole entry): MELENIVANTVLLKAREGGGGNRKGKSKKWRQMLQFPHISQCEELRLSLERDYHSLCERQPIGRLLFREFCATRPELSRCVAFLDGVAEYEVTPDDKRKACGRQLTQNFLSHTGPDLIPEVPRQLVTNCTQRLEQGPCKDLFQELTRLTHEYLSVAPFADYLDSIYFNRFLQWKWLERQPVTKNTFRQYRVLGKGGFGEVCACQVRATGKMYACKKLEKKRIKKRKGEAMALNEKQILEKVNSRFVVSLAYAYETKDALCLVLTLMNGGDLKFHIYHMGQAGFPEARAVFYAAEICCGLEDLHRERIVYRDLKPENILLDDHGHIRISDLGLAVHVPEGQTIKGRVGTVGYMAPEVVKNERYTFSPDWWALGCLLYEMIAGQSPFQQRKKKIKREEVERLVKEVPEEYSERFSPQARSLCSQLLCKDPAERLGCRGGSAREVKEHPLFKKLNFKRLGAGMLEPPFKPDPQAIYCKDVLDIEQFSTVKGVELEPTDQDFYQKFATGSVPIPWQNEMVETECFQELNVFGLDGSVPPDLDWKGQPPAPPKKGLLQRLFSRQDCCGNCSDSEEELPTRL
T7 sequence (Q00535 whole entry): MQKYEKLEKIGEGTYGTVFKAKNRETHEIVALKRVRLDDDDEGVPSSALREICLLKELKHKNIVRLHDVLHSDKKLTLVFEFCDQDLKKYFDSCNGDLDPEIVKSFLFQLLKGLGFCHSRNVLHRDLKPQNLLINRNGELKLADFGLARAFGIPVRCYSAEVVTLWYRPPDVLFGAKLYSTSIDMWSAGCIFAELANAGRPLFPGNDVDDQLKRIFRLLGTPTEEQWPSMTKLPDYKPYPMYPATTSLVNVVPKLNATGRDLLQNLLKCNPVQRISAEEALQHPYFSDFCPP
T3 sequence (P24723 whole entry): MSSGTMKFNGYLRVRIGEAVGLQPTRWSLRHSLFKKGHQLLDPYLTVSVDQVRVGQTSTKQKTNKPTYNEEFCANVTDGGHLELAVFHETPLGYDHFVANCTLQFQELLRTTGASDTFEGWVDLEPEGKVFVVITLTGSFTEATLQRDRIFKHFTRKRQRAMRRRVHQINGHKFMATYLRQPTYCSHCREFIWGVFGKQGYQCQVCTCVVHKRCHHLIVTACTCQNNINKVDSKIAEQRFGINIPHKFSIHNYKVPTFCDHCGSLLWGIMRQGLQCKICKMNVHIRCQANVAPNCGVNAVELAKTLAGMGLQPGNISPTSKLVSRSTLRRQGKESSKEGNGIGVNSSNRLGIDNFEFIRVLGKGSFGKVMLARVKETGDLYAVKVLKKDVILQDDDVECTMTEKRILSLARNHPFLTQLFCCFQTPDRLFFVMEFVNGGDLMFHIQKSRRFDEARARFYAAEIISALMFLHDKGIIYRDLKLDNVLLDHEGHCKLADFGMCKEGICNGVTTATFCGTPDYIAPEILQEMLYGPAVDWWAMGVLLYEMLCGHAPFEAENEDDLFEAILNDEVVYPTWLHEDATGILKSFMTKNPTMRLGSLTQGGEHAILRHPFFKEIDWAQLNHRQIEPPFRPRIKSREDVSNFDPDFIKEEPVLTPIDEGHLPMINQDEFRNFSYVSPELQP
T6 sequence (P49840 whole entry): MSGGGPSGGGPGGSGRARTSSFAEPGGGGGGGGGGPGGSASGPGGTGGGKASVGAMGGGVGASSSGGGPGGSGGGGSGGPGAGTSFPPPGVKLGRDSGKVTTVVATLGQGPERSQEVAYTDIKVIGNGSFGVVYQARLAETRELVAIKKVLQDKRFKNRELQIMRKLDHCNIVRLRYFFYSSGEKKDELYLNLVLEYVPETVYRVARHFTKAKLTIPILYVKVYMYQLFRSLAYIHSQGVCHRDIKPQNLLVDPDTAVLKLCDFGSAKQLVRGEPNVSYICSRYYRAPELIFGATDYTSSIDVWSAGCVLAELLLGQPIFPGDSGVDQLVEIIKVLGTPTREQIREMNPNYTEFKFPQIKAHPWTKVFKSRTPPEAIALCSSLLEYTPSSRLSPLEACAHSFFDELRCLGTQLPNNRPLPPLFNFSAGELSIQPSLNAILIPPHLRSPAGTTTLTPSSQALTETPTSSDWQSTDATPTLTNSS
T9 sequence (Q9UKE5 whole entry): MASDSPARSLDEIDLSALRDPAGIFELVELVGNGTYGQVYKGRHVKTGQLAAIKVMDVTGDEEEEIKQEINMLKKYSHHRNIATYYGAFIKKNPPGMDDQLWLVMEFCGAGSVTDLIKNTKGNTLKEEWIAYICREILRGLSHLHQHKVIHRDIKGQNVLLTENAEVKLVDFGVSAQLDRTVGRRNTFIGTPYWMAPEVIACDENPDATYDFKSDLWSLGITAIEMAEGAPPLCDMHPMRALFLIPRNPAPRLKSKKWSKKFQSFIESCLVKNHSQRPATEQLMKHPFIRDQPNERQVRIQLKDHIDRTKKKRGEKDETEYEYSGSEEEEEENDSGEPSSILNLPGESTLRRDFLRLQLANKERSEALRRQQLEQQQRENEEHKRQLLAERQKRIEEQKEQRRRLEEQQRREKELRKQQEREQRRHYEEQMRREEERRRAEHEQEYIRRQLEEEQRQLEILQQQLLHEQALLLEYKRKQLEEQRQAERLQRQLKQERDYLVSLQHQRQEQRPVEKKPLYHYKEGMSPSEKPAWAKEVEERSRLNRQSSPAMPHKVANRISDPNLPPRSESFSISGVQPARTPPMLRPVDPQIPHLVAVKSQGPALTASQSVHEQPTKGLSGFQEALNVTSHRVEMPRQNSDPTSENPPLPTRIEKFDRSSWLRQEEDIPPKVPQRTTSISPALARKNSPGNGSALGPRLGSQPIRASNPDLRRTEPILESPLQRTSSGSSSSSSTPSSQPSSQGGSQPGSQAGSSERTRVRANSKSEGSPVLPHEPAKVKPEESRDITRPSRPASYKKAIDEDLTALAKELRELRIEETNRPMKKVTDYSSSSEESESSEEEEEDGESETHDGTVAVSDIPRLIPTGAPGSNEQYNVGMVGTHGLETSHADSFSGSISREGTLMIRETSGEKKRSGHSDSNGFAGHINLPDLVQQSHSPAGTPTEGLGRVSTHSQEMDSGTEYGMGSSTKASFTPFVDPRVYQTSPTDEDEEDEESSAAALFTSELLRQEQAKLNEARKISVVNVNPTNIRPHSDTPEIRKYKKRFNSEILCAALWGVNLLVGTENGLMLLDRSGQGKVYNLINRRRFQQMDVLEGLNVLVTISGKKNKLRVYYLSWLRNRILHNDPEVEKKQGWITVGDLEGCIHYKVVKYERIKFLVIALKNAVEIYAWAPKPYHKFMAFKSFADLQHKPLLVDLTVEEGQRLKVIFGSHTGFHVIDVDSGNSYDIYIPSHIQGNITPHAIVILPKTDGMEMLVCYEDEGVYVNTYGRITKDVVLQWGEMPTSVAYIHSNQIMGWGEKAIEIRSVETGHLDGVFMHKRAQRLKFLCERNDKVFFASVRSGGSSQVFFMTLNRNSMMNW
T8 sequence (Q16620 32-822): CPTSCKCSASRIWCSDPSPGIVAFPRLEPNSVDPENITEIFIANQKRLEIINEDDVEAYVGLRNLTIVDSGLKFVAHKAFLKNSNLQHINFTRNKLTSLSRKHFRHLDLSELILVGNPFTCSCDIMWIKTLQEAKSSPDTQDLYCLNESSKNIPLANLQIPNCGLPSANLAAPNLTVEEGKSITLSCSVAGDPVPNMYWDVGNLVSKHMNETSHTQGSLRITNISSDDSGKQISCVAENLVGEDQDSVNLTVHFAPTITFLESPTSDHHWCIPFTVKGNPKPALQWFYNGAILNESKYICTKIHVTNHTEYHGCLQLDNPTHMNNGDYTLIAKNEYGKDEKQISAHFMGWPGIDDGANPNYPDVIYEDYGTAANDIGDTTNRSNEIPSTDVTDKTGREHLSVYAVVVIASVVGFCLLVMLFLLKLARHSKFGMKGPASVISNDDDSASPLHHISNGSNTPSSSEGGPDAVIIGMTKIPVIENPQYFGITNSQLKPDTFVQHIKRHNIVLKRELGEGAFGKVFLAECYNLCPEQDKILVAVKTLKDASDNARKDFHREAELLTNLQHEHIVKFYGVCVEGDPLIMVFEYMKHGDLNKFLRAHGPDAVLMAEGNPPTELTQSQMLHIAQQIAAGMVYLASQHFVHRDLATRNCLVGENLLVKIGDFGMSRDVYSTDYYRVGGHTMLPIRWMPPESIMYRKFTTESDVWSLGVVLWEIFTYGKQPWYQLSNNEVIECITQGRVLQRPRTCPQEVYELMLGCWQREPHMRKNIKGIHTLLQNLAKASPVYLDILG

Structure (SMILES)	remaining activity at 5 µM [1] [%]	remaining activity at 5 µM [2] [%]	remaining activity at 5 µM [3] [%]	remaining activity at 5 µM [4] [%]	remaining activity at 5 µM [5] [%]	remaining activity at 5 µM [6] [%]	remaining activity at 5 µM [7, 10] [%]	remaining activity at 5 µM [7, 11] [%]	remaining activity at 5 µM [8] [%]	remaining activity at 5 µM [9] [%]	remaining activity at 10 µM ([1]; 10 uM) [%]	remaining activity at 10 µM ([2]; 10 uM) [%]	remaining activity at 10 µM ([3]; 10 uM) [%]	remaining activity at 10 µM ([4]; 10 uM) [%]	remaining activity at 10 µM ([5]; 10 uM) [%]	remaining activity at 10 µM ([6]; 10 uM) [%]	remaining activity at 10 µM [7, 10] [%]	remaining activity at 10 µM [7, 11] [%]	remaining activity at 10 µM ([8]; 10 uM) [%]	remaining activity at 10 µM ([9]; 10 uM) [%]
O=C(Nc1cnn(-c2csc(C(=O)NC3COC3)c2)c1)Nc1ccccc1Cl [Compound 17, 4-(4-(3-(2-chlorophenyl)ureido)-1H-pyrazol-1-yl)-N-(oxetan-3-yl)thiophene-2-carboxamide]	98.8	90	103	96.7	97.9	97.4	101	95.4	84.2	53.2	–	–	–	–	–	–	–	–	–	–
Cc1sc(C(=O)NC2COC2)cc1-n1cc(NC(=O)Nc2c(F)cccc2Cl)cn1 [Compound 27, 4-(4-(3-(2-chloro-6-fluorophenyl)ureido)-1H-pyrazol-1-yl)-5-methyl-N-(oxetan-3-yl)thiophene-2-carboxamide]	–	–	–	–	–	–	–	–	–	–	79.3	80.2	91.6	86.6	91.5	128	97.6	103	92.4	94.5
O=C(Nc1cnn(-c2csc(C(=O)NC3COC3)c2)c1)Nc1c(F)cccc1Cl [Compound 25, 4-(4-(3-(2-chloro-6-fluorophenyl)ureido)-1H-pyrazol-1-yl)-N-(oxetan-3-yl)thiophene-2-carboxamide]	92.5	95.5	99	73	102	93.5	88.2	94.3	91.5	84.3	–	–	–	–	–	–	–	–	–	–
